From PubChem BioAssay (NCI)
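Step 1: Grow cells in 96-well plates. Step 2: Expose to compound for 48 hours at 5 concentrations. Step 3: Interpolate endpoints linearly; if unreached, use highest concentration. At the TGI there is no net growth.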

Key:
Assay in all cases: inhibition of tumour cell growth, NCI panel, 48 h
786-0 renal = tested on: 786-0 renal
A498 renal = tested on: A498 renal
A549 NSCLC = tested on: A549 NSCLC
ACHN renal = tested on: ACHN renal
CAKI-1 renal = tested on: CAKI-1 renal
CCRF-CEM leukemia = tested on: CCRF-CEM leukemia
COLO 205 colon = tested on: COLO 205 colon
DLD-1 colon = tested on: DLD-1 colon
DMS 114 small cell lung = tested on: DMS 114 small cell lung
DMS 273 small cell lung = tested on: DMS 273 small cell lung
EKVX NSCLC = tested on: EKVX NSCLC
HCC-2998 colon = tested on: HCC-2998 colon
HCT-116 colon = tested on: HCT-116 colon
HCT-15 colon = tested on: HCT-15 colon
HL-60(TB) leukemia = tested on: HL-60(TB) leukemia
HOP-62 NSCLC = tested on: HOP-62 NSCLC
HT29 colon = tested on: HT29 colon
IGROV1 ovarian = tested on: IGROV1 ovarian
K-562 leukemia = tested on: K-562 leukemia
KM20L2 colon = tested on: KM20L2 colon
LOX IMVI melanoma = tested on: LOX IMVI melanoma
LXFL 529 NSCLC = tested on: LXFL 529 NSCLC
M14 melanoma = tested on: M14 melanoma
M19-MEL melanoma = tested on: M19-MEL melanoma
MALME-3M melanoma = tested on: MALME-3M melanoma
MOLT-4 leukemia = tested on: MOLT-4 leukemia
NCI-H226 lung = tested on: NCI-H226 lung
NCI-H23 lung = tested on: NCI-H23 lung
NCI-H460 lung = tested on: NCI-H460 lung
NCI-H522 lung = tested on: NCI-H522 lung
OVCAR-4 ovarian = tested on: OVCAR-4 ovarian
OVCAR-8 ovarian = tested on: OVCAR-8 ovarian
RPMI-8226 leukemia = tested on: RPMI-8226 leukemia
SF-295 CNS = tested on: SF-295 CNS
SF-539 CNS = tested on: SF-539 CNS
SK-MEL-2 melanoma = tested on: SK-MEL-2 melanoma
SK-MEL-5 melanoma = tested on: SK-MEL-5 melanoma
SN12C renal = tested on: SN12C renal
SNB-19 CNS = tested on: SNB-19 CNS
SNB-75 CNS = tested on: SNB-75 CNS
SR leukemia = tested on: SR leukemia
SW-620 colon = tested on: SW-620 colon
TK-10 renal = tested on: TK-10 renal
U251 CNS = tested on: U251 CNS
UACC-257 melanoma = tested on: UACC-257 melanoma
UACC-62 melanoma = tested on: UACC-62 melanoma
UO-31 renal = tested on: UO-31 renal
XF 498 CNS = tested on: XF 498 CNS
BT-549 breast = tested on: BT-549 breast
DU-145 prostate = tested on: DU-145 prostate
HOP-92 NSCLC = tested on: HOP-92 NSCLC
HS 578T breast = tested on: HS 578T breast
KM12 colon = tested on: KM12 colon
MCF7 breast = tested on: MCF7 breast
MDA-MB-231 breast = tested on: MDA-MB-231 breast
MDA-MB-435 = tested on: MDA-MB-435
MDA-N = tested on: MDA-N
NCI/ADR-RES ovarian = tested on: NCI/ADR-RES ovarian
OVCAR-3 ovarian = tested on: OVCAR-3 ovarian
OVCAR-5 ovarian = tested on: OVCAR-5 ovarian
PC-3 prostate = tested on: PC-3 prostate
RXF 393 renal = tested on: RXF 393 renal
SF-268 CNS = tested on: SF-268 CNS
SK-MEL-28 melanoma = tested on: SK-MEL-28 melanoma
SK-OV-3 ovarian = tested on: SK-OV-3 ovarian
T-47D breast = tested on: T-47D breast

Measured: TGI

Cc1ccc(S(=O)(=O)N/N=C/CN2C(=O)c3ccccc3C2=O)cc1
not listed: BT-549 breast | DU-145 prostate | HOP-92 NSCLC | HS 578T breast | KM12 colon | MCF7 breast | MDA-MB-231 breast | MDA-MB-435 | MDA-N | NCI/ADR-RES ovarian | OVCAR-3 ovarian | OVCAR-5 ovarian | PC-3 prostate | RXF 393 renal | SF-268 CNS | SK-MEL-28 melanoma | SK-OV-3 ovarian | T-47D breast
> 100 µM: all other assays above

COc1nc2ncc([C@@H](O)[C@H](O)CO)nc2c(=O)[nH]1
not listed: DLD-1 colon | DMS 114 small cell lung | DMS 273 small cell lung | HCC-2998 colon | KM20L2 colon | LXFL 529 NSCLC | M19-MEL melanoma | NCI-H23 lung | XF 498 CNS
> 100 µM: all other assays above
